# Data reported in ChEMBL document CHEMBL5727382, “[1,2,3]triazolo[4,5-D]pyrimidine derivatives with affinity for the type-2 cannabinoid receptor” (2019).
# Tests used:
# [1] = biological target: Cannabinoid receptor 2 (Homo sapiens, UniProt P34972); assay: (§1) Radioligand Binding Assay: he affinity of the compounds of the invention for cannabinoid receptors was determined using recommended amounts of membrane preparations (PerkinElmer) of human embryonic kidney (HEK) cells expressing the human CNR1 or CNR2 receptors in conjunction with 1.5 or 2.6 nM [3H]-CP-55,940 (Perkin Elmer) as radioligand, respectively. Binding was performed in binding buffer (50 mM Tris, 5 mM MgCl2, 2.5 mM EDTA, and 0.5% (wt/vol) fatty acid free BSA, pH 7.4 for CB1 receptor and 50 mM Tris, 5 mM MgCl2, 2.5 mM EGTA, and 0.1% (wt/vol) fatty acid free BSA, pH 7.4 for CB2 receptor) in a total volume of 0.2 mL for 1 h at 30° C. shaking. The reaction was terminated by rapid filtration through microfiltration plates coated with 0.5% polyethylenimine (UniFilter GF/B filter plate; Packard). Bound radioactivity was analyzed for Ki using nonlinear regression analysis (Activity Base, ID Business Solution, Limited), with the Kd values for [3H]CP55,940 determined from saturation experiments.
# [2] = biological target: Cannabinoid receptor 1 (Homo sapiens, UniProt P21554); assay: as §1
# Chain of Cannabinoid receptor 1 (P21554 whole entry): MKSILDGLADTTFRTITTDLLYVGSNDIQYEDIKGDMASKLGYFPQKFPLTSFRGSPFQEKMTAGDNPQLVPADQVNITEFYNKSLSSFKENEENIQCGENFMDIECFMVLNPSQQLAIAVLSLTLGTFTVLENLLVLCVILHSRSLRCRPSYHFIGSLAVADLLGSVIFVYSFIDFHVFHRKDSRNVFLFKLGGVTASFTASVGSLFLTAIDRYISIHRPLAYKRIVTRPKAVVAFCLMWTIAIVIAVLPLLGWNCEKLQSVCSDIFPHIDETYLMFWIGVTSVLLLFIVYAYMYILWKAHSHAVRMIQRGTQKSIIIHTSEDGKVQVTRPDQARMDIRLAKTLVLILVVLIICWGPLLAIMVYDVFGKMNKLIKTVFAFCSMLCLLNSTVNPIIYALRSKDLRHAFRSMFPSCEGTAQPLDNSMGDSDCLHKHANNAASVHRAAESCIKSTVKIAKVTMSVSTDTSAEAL
# Chain of Cannabinoid receptor 2 (P34972 whole entry): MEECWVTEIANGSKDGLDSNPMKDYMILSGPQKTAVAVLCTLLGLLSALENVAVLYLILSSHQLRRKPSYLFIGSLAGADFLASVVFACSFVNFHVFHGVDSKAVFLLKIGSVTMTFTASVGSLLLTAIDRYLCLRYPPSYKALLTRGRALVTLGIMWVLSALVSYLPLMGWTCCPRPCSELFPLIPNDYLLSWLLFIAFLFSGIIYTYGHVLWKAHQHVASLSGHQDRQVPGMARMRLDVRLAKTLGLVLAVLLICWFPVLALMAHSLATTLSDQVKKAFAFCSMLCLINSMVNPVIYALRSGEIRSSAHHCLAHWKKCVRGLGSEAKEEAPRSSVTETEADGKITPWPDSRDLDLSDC
Structure (SMILES),Ki [1],Ki [2]
CC(C)(C)c1nc(N2CCC(N=C=S)C2)c2nnn(Cc3ccccc3Cl)c2n1 (centres undefined),1.36 µM,5.64 µM
"Cc1nonc1Cn1nnc2c(N3CC[C@@H](S)C3)nc(C(C)(C)C)nc21 (single isomer, unassigned)",0.64 µM,8 µM
